Reference: BigSolDB 2.1

O=C(Nc1c(Cl)cncc1Cl)c1ccc(OC(F)F)c(OCC2CC2)c1
solubility (mole fraction)
Conditions	278.2 K	283.2 K	288.2 K	293.2 K	298.2 K	303.2 K	308.2 K	313.2 K	318.2 K	323.2 K
in 2-butanone	0.000102	0.00013	0.000165	0.000204	0.000264	0.000351	0.000448	0.000586	0.00081	0.00118
in 2-pentanone	7.4e-05	9.8e-05	0.000114	0.00016	0.000219	0.000311	0.000402	0.000551	0.000756	0.00101
in DMF	4e-06	6e-06	8e-06	1.3e-05	1.9e-05	3.1e-05	4.3e-05	6.1e-05	8.6e-05	0.000119
in DMSO	3.3e-05	4.2e-05	6.3e-05	9e-05	0.000132	0.000171	0.000236	0.00033	0.000457	0.000629
in ethanol	6.5e-05	8.8e-05	0.000106	0.00015	0.000208	0.000297	0.000387	0.000533	0.000734	0.000989
in n-butanol	4.5e-05	6.2e-05	7.8e-05	0.000112	0.000156	0.000226	0.000296	0.000411	0.00057	0.000782
in n-propanol	4.9e-05	7.6e-05	9.4e-05	0.000131	0.000175	0.000244	0.000328	0.000455	0.000625	0.000868
